Laboratory results taken from ChEMBL document CHEMBL1201862, “PubChem BioAssay data set” (2004).
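Protocol summary: plate cells (96-well), add compound at 5 concentrations, incubate 48 h, interpolate endpoints linearly. GI50: concentration for 50% inhibition of growth.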 The source made the active and inactive calls. No stated cut-off is given here; in the data, active = GI50 up to about 1.1 µM and inactive = higher.

Tests used:
Experiment in all cases: NCI-60 cell line screen, 48 h
HT-29 = tested on: HT-29
NCI-H522 = tested on: NCI-H522
ACHN = tested on: ACHN
MOLT-4 = tested on: MOLT-4
UO-31 = tested on: UO-31
IGROV-1 = tested on: IGROV-1
K562 = tested on: K562
A498 = tested on: A498
RXF 393 = tested on: RXF 393
HOP-92 = tested on: HOP-92
LOX IMVI = tested on: LOX IMVI
TK-10 = tested on: TK-10
NCI-H23 = tested on: NCI-H23
SK-MEL-28 = tested on: SK-MEL-28
KM12 = tested on: KM12
SR = tested on: SR
RPMI-8226 = tested on: RPMI-8226

Measured: GI50

COc1ccc(/C(=N/Nc2ccccc2)C(c2ccc(OC)cc2)C2OC(=O)c3ccccc32)cc1 (stereo not drawn)
inactive: HT-29 90.6 µM | NCI-H522 70.5 µM | ACHN 97.1 µM | MOLT-4 25.6 µM | UO-31 60.7 µM | IGROV-1 83.9 µM | K562 31.8 µM | A498 > 100 µM | RXF 393 > 10 µM

CCC1(N=[N+]=[N-])C(=O)Nc2cc(C)ccc2C1=O (stereo not drawn)
inactive: HOP-92 46.1 µM | LOX IMVI 86.5 µM | TK-10 > 100 µM | HT-29 89.9 µM | NCI-H522 4.25 µM | NCI-H23 70.1 µM | SK-MEL-28 > 100 µM | ACHN 22.3 µM | MOLT-4 39.4 µM | UO-31 46.7 µM | IGROV-1 > 100 µM | K562 47.5 µM | A498 > 100 µM | KM12 > 100 µM

CN(C)c1ccc(/C=C(\NC(=O)c2ccccc2)c2nc3cncnc3[nH]2)cc1
inactive: HOP-92 41.5 µM | TK-10 > 100 µM | HT-29 > 100 µM | NCI-H522 > 100 µM | NCI-H23 > 100 µM | SK-MEL-28 > 100 µM | ACHN > 100 µM | MOLT-4 > 100 µM | UO-31 > 100 µM | IGROV-1 > 100 µM | K562 > 100 µM | SR > 100 µM | RXF 393 > 100 µM | KM12 > 100 µM

O=C1C(Cl)C(c2ccc(Cl)cc2)N1n1cnc2ccccc2c1=O (stereo not drawn)
inactive: LOX IMVI 70.5 µM | TK-10 > 100 µM | HT-29 > 100 µM | NCI-H522 55.2 µM | NCI-H23 > 100 µM | SK-MEL-28 > 100 µM | ACHN > 100 µM | RPMI-8226 40.6 µM | MOLT-4 88.9 µM | UO-31 59.7 µM | IGROV-1 96.2 µM | K562 35.6 µM | SR 52.7 µM | RXF 393 76 µM | KM12 24.8 µM

COc1cccc2c1[C@]1(O)C(O)CCCC21 (stereo partly drawn)
inactive: LOX IMVI > 100 µM | TK-10 > 100 µM | HT-29 > 100 µM | NCI-H522 > 100 µM | NCI-H23 > 100 µM | SK-MEL-28 > 100 µM | ACHN > 100 µM | RPMI-8226 > 100 µM | MOLT-4 > 100 µM | UO-31 > 100 µM | IGROV-1 > 100 µM | K562 > 100 µM | A498 > 100 µM | RXF 393 > 100 µM | KM12 > 100 µM

CCc1ccccc1NC(=O)C(=O)C(C#N)c1ccccc1Cl (stereo not drawn)
inactive: HOP-92 > 100 µM | LOX IMVI 3.36 µM | TK-10 2.55 µM | HT-29 > 100 µM | NCI-H23 > 100 µM | SK-MEL-28 > 100 µM | ACHN > 100 µM | RPMI-8226 > 100 µM | MOLT-4 > 100 µM | UO-31 > 100 µM | IGROV-1 > 100 µM | A498 35.5 µM | RXF 393 > 100 µM | KM12 > 100 µM

CCOC(=O)c1cc(OC(=O)CC)c2c(OC)ccc(OC)c2c1
inactive: TK-10 47.1 µM | HT-29 > 10 µM | NCI-H522 > 100 µM | NCI-H23 74 µM | SK-MEL-28 > 100 µM | ACHN 35.2 µM | RPMI-8226 30.5 µM | MOLT-4 43.7 µM | UO-31 74.1 µM | IGROV-1 > 100 µM | K562 42.3 µM | SR 18.7 µM | RXF 393 30.5 µM | KM12 42.7 µM

CCOc1ccc(NC(=O)C(=O)C(C(=O)c2ccc3ccccc3c2)C2OC(=O)c3ccccc32)cc1 (stereo not drawn)
inactive: HOP-92 19.5 µM | LOX IMVI 15.7 µM | TK-10 50.7 µM | HT-29 34.4 µM | NCI-H522 11.8 µM | NCI-H23 11.7 µM | SK-MEL-28 13.6 µM | ACHN 33.4 µM | RPMI-8226 4.8 µM | MOLT-4 4.57 µM | UO-31 15.7 µM | IGROV-1 17.6 µM | K562 20.5 µM | A498 15.1 µM | KM12 32.7 µM

CC/C(=N/O)C(C)C(=O)CCC(=O)Nc1ccc(Cl)cc1 (stereo not drawn)
inactive: LOX IMVI > 100 µM | TK-10 > 100 µM | HT-29 > 100 µM | NCI-H23 > 100 µM | SK-MEL-28 > 100 µM | ACHN 68.4 µM | RPMI-8226 > 100 µM | MOLT-4 > 100 µM | UO-31 > 100 µM | IGROV-1 > 100 µM | K562 57.1 µM | A498 > 100 µM | RXF 393 > 100 µM | KM12 > 100 µM

CC(C)(C)S(=O)OC12CC3CC(CC(C3)C1)C2 (stereo not drawn)
inactive: LOX IMVI > 100 µM | TK-10 > 100 µM | HT-29 > 100 µM | NCI-H522 > 100 µM | NCI-H23 > 100 µM | SK-MEL-28 > 100 µM | ACHN > 100 µM | RPMI-8226 > 100 µM | MOLT-4 > 100 µM | UO-31 92 µM | IGROV-1 > 100 µM | K562 > 10 µM | SR > 100 µM | RXF 393 > 100 µM | KM12 > 10 µM

CCCCCCCCCCCCCP(=O)(O)NCC(N)=O
inactive: HOP-92 25.4 µM | LOX IMVI 51.5 µM | TK-10 58.3 µM | HT-29 > 100 µM | NCI-H522 34.5 µM | NCI-H23 > 100 µM | SK-MEL-28 39.1 µM | ACHN 28.6 µM | RPMI-8226 35.1 µM | UO-31 27.7 µM | IGROV-1 41.2 µM | A498 > 100 µM | RXF 393 > 100 µM | KM12 85.1 µM

CNC(=O)C(C)Oc1ccc(OCC2CCCCC2)cc1 (stereo not drawn)
inactive: LOX IMVI > 100 µM | TK-10 > 100 µM | HT-29 86.3 µM | NCI-H522 25.2 µM | NCI-H23 35.6 µM | SK-MEL-28 > 100 µM | ACHN > 100 µM | MOLT-4 > 100 µM | UO-31 31.7 µM | IGROV-1 > 100 µM | K562 65 µM | A498 > 100 µM | RXF 393 > 100 µM | KM12 > 100 µM

COc1ccc2nc(NC(=O)C(=O)C(C#N)c3ccc(CC#N)cc3)sc2c1 (stereo not drawn)
inactive: HOP-92 96.8 µM | LOX IMVI > 100 µM | TK-10 > 100 µM | HT-29 > 100 µM | NCI-H522 > 100 µM | NCI-H23 > 100 µM | SK-MEL-28 > 100 µM | ACHN > 100 µM | RPMI-8226 > 100 µM | MOLT-4 > 100 µM | UO-31 54.6 µM | IGROV-1 > 100 µM | K562 > 100 µM | A498 > 100 µM | RXF 393 > 100 µM | KM12 > 100 µM

CN1CCN(C)C1c1cccc(C2N(C)CCN2C)c1
inactive: HOP-92 > 100 µM | LOX IMVI > 100 µM | HT-29 > 100 µM | NCI-H522 > 100 µM | NCI-H23 > 100 µM | SK-MEL-28 > 100 µM | ACHN > 100 µM | RPMI-8226 > 100 µM | MOLT-4 > 100 µM | UO-31 > 100 µM | IGROV-1 > 100 µM | K562 46.2 µM | A498 > 100 µM | RXF 393 > 100 µM | KM12 > 100 µM
